For experiment [1], the target named is T1, AF9-DOT1L interaction (Homo sapiens, UniProt P42568).
T1 construct: cDNA for human AF9 AHD domain (475-568) and ENL AHD domain (489-559) was synthesized; made in house; host or cells: E. coli BL21(DE3)
T1 sequence (P42568 475-568): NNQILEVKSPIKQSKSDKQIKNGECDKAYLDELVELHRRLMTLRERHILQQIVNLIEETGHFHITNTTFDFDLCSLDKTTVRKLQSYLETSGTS
The experiment is described as follows: Alpha assay, AF9 AHD-DOT1L peptide interaction. The experiment is classed as binding. The settings on record: read-out: IC50, inhibition of AF9-DOT1L interaction. An excerpt:
(§1) We developed an Alpha (amplified luminescent proximity homogeneous assay) assay to determine the binding and inhibition of the PPI between maltose-binding protein (MBP)-tagged AF9 AHD and a biotin-labeled DOT1L peptide, using AlphaLisa streptavidin donor beads and anti-MBP acceptor beads. Laser excitation to the donor beads generates singlet oxygen radicals, which can travel for <200 nm in solution and cannot reach the free acceptor beads. The PPI brings the DOT1L coated donor beads and AHD coated acceptor beads together, allowing the radicals to activate the acceptor beads and produce luminescence. […] We also developed a fluorescence polarization (FP) assay. A fluorescein-labeled DOT1L peptide has a higher freedom in solution with a lower polarization value.
Alpha assays. Alpha assays were developed using Perkin-Elmer AlphaLisa anti-MBP kit, which contains streptavidin donor beads and anti-MBP acceptor beads. The assay was performed using a MBP-protein (5 nM), a biotinylated peptide (40 nM), and increasing concentrations of a compound in 25 µL buffer (PBS with 0.5 % BSA, pH 7.5) in 384-well plates according to the manufacturer's protocol and measured with a Tecan SPARK microplate reader. Data were imported into Prism (version 5.0), and IC50 values from 3 independent experiments with standard deviation were obtained by using a standard dose-response curve fitting.

Experiment [2] concerns the target T1, AF9-DOT1L interaction. The experiment is described as follows: Fluorescence polarization (FP) inhibition assay, AF9-DOT1L. The experiment is classed as binding.
Description: as §1
Fluorescence polarization assay. It was performed in 96-well black microplates with each well containing a Fluorescein-labeled peptide (2 nM) and increasing concentration of a AF9/ENL protein in a buffer (20 mM HEPES, pH 7.5, 0.01% Triton X-100, 100 µL) for Kd determination. For IC50 determination, a Fluorescein-labeled peptide (2 nM), AF9/ENL protein (100 nM) and increasing concentration of a compound in the same buffer were placed in each well. Upon incubation of 1h, the FP value of each well was determined using a Tecan SPARK microplate reader. Data were similarly processed to obtain Kd or IC50 values.
(In general: Fluorescence polarisation rises when a labelled molecule tumbles more slowly, as on binding a larger partner.)

Experiment [3] concerns cancer cells. The experiment in a line: Antiproliferation assays, cancer cell panel. The experiment is classed as cell-based. The settings on record: all cancer cells tested; read-out: EC50 against proliferation. The method, then: The differential antiproliferation activities of compound 1 is consistent with its ability to suppress DOT1L/H3K79 methylation and SEC regulated gene expression, which are critical to MLL-r leukemia and Myc-driven blood cancer, but largely dispensable to other solid tumor cells.
(§2) Antiproliferation assay. Proliferation inhibition assays for suspension blood cancer cells were performed using an XTT assay kit (Roche). Proliferation inhibition assays for solid tumor cell lines MCF-7, MDA-MB-231, Panc1, Panc28 were performed using an MTT assay (Sigma). The antiproliferation EC50 values were determined using Prism 5 and the reported results were the mean values of at least three independent experiments. The incubation time for compound 1 was 7 days and that for EPZ4777 was 14 days.

The test system of experiment [4] is HL60 cells. The experiment in a line: Antiproliferation assay (XTT). In kind it is cell-based. The settings on record: Homo sapiens, HL-60, 168 h, 7-day incubation, read-out: Cytotoxicity EC50. The method, then:
as §2

In experiment [5] the test system is Jurkat cells. The experiment in a line: Antiproliferation assay (XTT). In kind it is cell-based. The settings on record: Homo sapiens, 168 h, 7-day incubation, read-out: Cytotoxicity EC50. The method, then: as §2
(In general: Formazan colour is commonly taken as a measure of viable cells.)

Experiment [6] concerns Kasumi-1 cells. The experiment in a line: Antiproliferation assay (XTT). In kind it is cell-based. The note with it: Homo sapiens, 168 h, 7-day incubation, read-out: Cytotoxicity EC50. The method, then: as §2
The test system of experiment [7] is RPMI-8226 cells. The experiment in a line: Antiproliferation assay (XTT). In kind it is cell-based. The settings on record: Homo sapiens, 168 h, 7-day incubation, read-out: Cytotoxicity EC50. The method, then: as §2
The subject of experiment [8] is U266 cells. The experiment in a line: Antiproliferation assay (XTT). In kind it is cell-based. The settings on record: Homo sapiens, U-266, 168 h, 7-day incubation, read-out: Cytotoxicity EC50. The method, then: as §2
In experiment [9] the test system is Molm-13 cells. The experiment in a line: Antiproliferation assay (XTT). The experiment is classed as cell-based. The settings on record: Homo sapiens, 168 h, 7-day incubation, read-out: Cytotoxicity EC50. The method, then:
as §2

Experiment [10] deals with MV4;11 cells. The experiment is described as follows: Antiproliferation assay (XTT). The experiment is classed as cell-based. The settings on record: Homo sapiens, 168 h, 7-day incubation, read-out: Cytotoxicity EC50. The method, then: as §2
For experiment [11], the system named is THP-1 cells. The experiment is described as follows: Antiproliferation assay (XTT). The settings on record: Homo sapiens, 168 h, 7-day incubation, read-out: Cytotoxicity EC50. In kind it is cell-based. The method, then:
as §2

Experiment [12] has as its target T2, AF9 AHD bound to DOT1L-coated beads (Homo sapiens, UniProt P42568).
T2 construct: cDNA for human AF9 AHD domain (475-568) and ENL AHD domain (489-559) was synthesized; made in house; host or cells: E. coli BL21(DE3)
The experiment is described as follows: Western blot based pull-down assay. The experiment is classed as binding. The settings on record: increasing concentrations. The method, then:
A non-optical pull-down assay was used to further validate compound 1. DOT1L-coated beads were incubated with AF9 AHD in the presence of increasing concentrations of 1.
Western blot based pull-down assay. Biotinylated DOT1L peptide (0.25 mg/mL) was incubated with streptavidin agarose beads in PBS containing 0.1% Triton X-100 (400 µL) for 3h to yield, after washing, DOT1L-coated beads. MBP-AF9 AHD (0.2 µM, 40 µL) was pre-incubated with a compound for 30 min before adding to the beads. After 6 hours incubation at 4 °C, the beads were collected, thoroughly washed, and subjected to SDS-PAGE and analyzed by Western blot using an MBP Mouse mAb (#2396, Cell signaling).
In general terms: In western blotting, separated proteins are transferred to a membrane and probed.

Experiment [13] has as its system HoxA9, Meis1 and Myc expression in MV4;11 cells. The experiment is described as follows: qPCR of MLL target genes. The note with it: 4 days. In kind it is cell-based. The method, then:
(§3) Next, compound 1 was tested for its ability to change expression of characteristic MLL-r leukemia genes HoxA9, Meis1 and Myc. Myc is also overexpressed in a broad range of AML and other cancers. […] (Figure S5), presumably because SEC is not recruited there.
(§4) RNA extraction and Quantitative real-time PCR (qPCR). 10^5 cells/ml were incubated with a compound for 4 days and the RNA was extracted using RNeasy mini kit (#74104, Qiagen). 100-1000 ng of total RNA was reverse transcribed using iScript™ Reverse Transcription Supermix (Bio-Rad) using the manufacturer's protocol. Quantitative real-time PCR was carried out using Fast SYBR Green Master Mix (Applied Biosystems) according to the manufacturer's instructions. Measurements were performed in triplicate, using GAPDH as the reference gene. Real-time PCR was performed using Biosystems Step One Plus detection system. The following sequences of primers are used: […]

For experiment [14], the system named is HoxA9, Meis1 and Myc expression in Molm-13 cells. The experiment is described as follows: qPCR of MLL target genes. The settings on record: 4 days. The experiment is classed as cell-based. The method, then: as §3, §4
In experiment [15] the test system is Panc-1 cells. The experiment is described as follows: Antiproliferation assay (MTT). The experiment is classed as cell-based. The settings on record: Homo sapiens, 168 h, 7-day incubation, read-out: Cytotoxicity EC50. The method, then: as §2
The test system of experiment [16] is Panc-28 cells. The experiment in a line: Antiproliferation assay (MTT). The settings on record: 168 h, 7-day incubation, read-out: Cytotoxicity EC50. In kind it is cell-based. The method, then: as §2
The test system of experiment [17] is MCF-7 cells. The experiment is described as follows: Antiproliferation assay (MTT). The settings on record: Homo sapiens, MCF7, 168 h, 7-day incubation, read-out: Cytotoxicity EC50. The experiment is classed as cell-based. The method, then: as §2
Experiment [18] concerns MDA-MB-231 cells. The experiment is described as follows: Antiproliferation assay (MTT). The experiment is classed as cell-based. The settings on record: Homo sapiens, 168 h, 7-day incubation, read-out: Cytotoxicity EC50. The method, then: as §2

Several values for one entry are separate records, joined by “and”; a condition that tells them apart may be missing. Equal values may be shown once.

As a reminder, the IC50 is the concentration that gives 50% inhibition. For the compound `CC(C)(C)c1ccc(-c2ccc(-n3cc(C(=O)NC4CCNCC4)nc3-c3ccccc3)cc2)cc1` [Compound 2], the IC50 in experiment [1] is 26.5 µM and ~25 µM; in [2] it was approximately 25 µM.
`O=C(NC1CCNCC1)c1cn(-c2ccc(-c3cn[nH]c3)cc2)c(-c2ccccc2)n1` [Compound 3]: the EC50 in [3], in [4], in experiment [5], in experiment [6], in experiment [7] and in experiment [8] was more than 50 µM in each case. Also, the EC50 in experiment [9], in experiment [10], in experiment [11], in experiment [15], in experiment [16] and in experiment [17] was more than 50 µM in each case. Also, the EC50 in experiment [18] is more than 50 µM. For the same compound, the “Beads-bound AF9 AHD in pull-down (Western blot)” value in [12] is listed as “cannot”. Moreover, the “Expression of MLL target genes HoxA9, Meis1 and Myc” value in experiment [13] and in [14] was “had no activity” throughout. Besides, in [1], the IC50 was more than 50 µM.
Consider `CC(C)(C)c1ccc(-n2cc(C(=O)NC3CCNCC3)nc2C2CCCCC2)cc1` [Compound 4], for which the IC50 in [1] is 24.8 µM.
As for `CC(C)c1nc(C(=O)NC2CCNCC2)cn1-c1ccc(C(C)(C)C)cc1` [Compound 5], in experiment [1], the IC50 is 7.8 µM.
Take `Cc1nc(C(=O)NC2CCNCC2)cn1-c1ccc(C(C)(C)C)cc1` [Compound 6]: the IC50 in [1] was more than 50 µM.
As to `CC(C)(C)c1ccc(-n2cc(C(=O)Nc3ccncc3)nc2-c2ccccc2)cc1` [Compound 7], the IC50 in [1] is 22.7 µM.

For the origin of these results see article PMC8344022, “Small-molecule inhibitor of AF9/ENL-DOT1L/AF4/AFF4 interactions suppresses malignant gene expression and tumor growth” (Theranostics, 2021).
